Reference: patent US10799505B2, “Crystalline form of (S)-N-(5-((R)-2-(2,5-difluorophenyl)-pyrrolidin-1-yl)-pyrazolo[1,5-A]pyrimidin-3-yl)-3-hydroxypyrrolidine-1-carboxamide hydrogen sulfate” (Array BioPharma, Inc., priority 2014, dated 2020)

Tests used:
Assay type in all cases: physicochemical
[1] = Accelerated stability, open vials in LDPE bag, 40° C./75% RH, five weeks
Description: Upon removal from the chamber, the samples were physically characterized by appearance, KF, TGA, DSC, XRD and PLM. The samples were also analyzed by HPLC for chromatographic purity, chiral integrity and potency. Where applicable, the data presented in the stability portion also includes the original T=0 data for comparison purposes. The data can be seen in Tables 25-29 and FIGS. 40-44.

[2] = Dynamic vapor sorption / humidity exposure (IGAsorp, 25° C.); conditions: at 80% RH, hydrogen sulfate
Description: • 1. The hygroscopicity was studied at 25° C. using an IGAsorp analyzer. • 2. About 15 mg of sample was placed in a tared mesh sample holder at an initial ambient room humidity setting of ˜35%. • 3. A total wet/dry nitrogen flow rate of 250 cc/min is used throughout the study. • 4. […] The maximum time allowed at any one humidity set point was 120 min. The sample was maintained under dry N2 after the cycle was completed. Percent weight gain was calculated based on the dry weight basis.

Angle of repose = conditions: for Angle of Repose θ: one side of the pile; for Angle of Repose φ: other side of the pile
Description: The angle of repose is the angle formed by the horizontal base of the surface and the edge of a cone-like pile of granules. It is calculated from the following equation: […]
The angle of repose was measured by slowly pouring approximately 1 g of sample through a funnel with a 3/16″ inner diameter of the outlet. The powder then fell 1 11/16″ to land on the surface of an overturned crystallization dish on which a pile of powder formed. A picture was taken of the pile after addition of all of the material. The angle between the dish surface and the surface of the pile was measure via a protractor on the pictures. Care was taken to replicate the same positions and fall distances in the set up between different samples.

[3] = Bulk and tap densities, Carr's Index, Hausner Ratio
Description: The powder was added to a pre-weighed 10 mL graduated cylinder through a funnel that was not in direct contact with the graduated cylinder to avoid transference of vibrations. Powder was added until a 10 mL volume was reached and then the graduated cylinder with powder was weighed. The bulk density was calculated by
[formula] The same sample in the graduated cylinder was tapped for the following sequence: 100, 150, 250, 250 taps. The volume was measured after each interval. The tapped density was calculated by
The Carr's Index was calculated according to the following equation: […]
The Hausner Ratio was calculated with the following equation: […]

[4] = Stability on aluminum slide at 40° Celsius/75% RH; conditions: I-HS 10 days; HCl after 1 hour; HBr after 2 weeks; mesylate overnight
[5] = Dynamic vapor sorption (DVS-1 system); conditions: for DVS (outcome): HCl: at 50-60% RH
Description: For the DVS measurement a sample of crystalline form (I-HS) was cycled through changing humidity conditions to determine its hygroscopicity. The sample was analyzed using a Surface Measurement System DVS-1 Dynamic Vapor Sorption System. […] Data was collected in 1 minute intervals. Nitrogen was used as the carrier gas. […] After completion of the sorption cycle, the sample was dried using the same procedure, but all the way down to 0% RH and finally taken back to the starting point of 20% RH. The weight change during the sorption/desorption cycles were plotted, allowing for the hygroscopic nature of the sample to be determined.

Compound: O=C(Nc1cnn2ccc(N3CCC[C@@H]3c3cc(F)ccc3F)nc12)N1CC[C@H](O)C1.O=S(=O)(O)O [AM(HS)1, (S)—N-(5-((R)-2-(2,5-difluorophenyl)-pyrrolidin-1-yl)-pyrazolo[1,5-a]pyrimidin-3-yl)-3-hydroxypyrrolidine-1-carboxamide hydrogen sulfate]
- Appearance ([1]; 40° C./75% RH, 5 wks): Orange Powder
- Assay (HPLC) ([1]; 40° C./75% RH, 5 wks): 80.3%
- Chiral Potency (HPLC) ([1]; 40° C./75% RH, 5 wks): 99.6%
- KF (water content) ([1]; 40° C./75% RH, 5 wks): 0.56 w/w %
- Peak Area Percent, RRT 0.793 ([1]; 40° C./75% RH, 5 wks): 0.00
- Peak Area Percent, RRT 0.863 ([1]; 40° C./75% RH, 5 wks): 1.04
- Peak Area Percent, RRT 0.981 ([1]; 40° C./75% RH, 5 wks): 0.12
- Peak Area Percent, RRT 1.000 ([1]; 40° C./75% RH, 5 wks): 98.83
- Peak Area Percent, RRT 1.535 ([1]; 40° C./75% RH, 5 wks): 0.00
- Total Impurities (HPLC) ([1]; 40° C./75% RH, 5 wks): 1.16%
- change of API chemical purity ([1]; 40° C./75% RH, five weeks): did not change significantly
- Appearance ([1]; time point 0 wks): Yellow Powder
- Assay (HPLC) ([1]; time point 0 wks): 79.5%
- Chiral Potency (HPLC) ([1]; time point 0 wks): 99.6%
- KF (water content) ([1]; time point 0 wks): 2.00 w/w %
- Peak Area Percent, RRT 0.793 ([1]; time point 0 wks): 0.00
- Peak Area Percent, RRT 0.863 ([1]; time point 0 wks): 0.98
- Peak Area Percent, RRT 0.981 ([1]; time point 0 wks): 0.12
- Peak Area Percent, RRT 1.000 ([1]; time point 0 wks): 98.89
- Peak Area Percent, RRT 1.535 ([1]; time point 0 wks): 0.00
- Total Impurities (HPLC) ([1]; time point 0 wks): 1.10%
- mass gained in DVS [2]: greater than 13%

Compound: O=C(Nc1cnn2ccc(N3CCC[C@@H]3c3cc(F)ccc3F)nc12)N1CC[C@H](O)C1.O=S(=O)(O)O [AM(HS)2, (S)—N-(5-((R)-2-(2,5-difluorophenyl)-pyrrolidin-1-yl)-pyrazolo[1,5-a]pyrimidin-3-yl)-3-hydroxypyrrolidine-1-carboxamide hydrogen sulfate]
- mass gained in DVS [2]: ~12%

Compound: O=C(Nc1cnn2ccc(N3CCC[C@@H]3c3cc(F)ccc3F)nc12)N1CC[C@H](O)C1.O=S(=O)(O)O [AR00457470-33]
- Angle of Repose Average (Angle of repose): 45.70 °
- Angle of Repose θ (Angle of repose): 47.79 °
- Angle of Repose φ (Angle of repose): 43.6 °
- Bulk Density [3]: 423.6 mg/mL
- Tapped Density [3]: 622.9 mg/mL

Compound: Br.O=C(Nc1cnn2ccc(N3CCC[C@@H]3c3cc(F)ccc3F)nc12)N1CC[C@H](O)C1 [HBr, (S)—N-(5-((R)-2-(2,5-difluorophenyl)pyrrolidin-1-yl)pyrazolo[1,5-a]pyrimidin-3-yl)-3-hydroxypyrrolidine-1-carboxamide hydrobromide]
- Stability at 40° Celsius/75% RH (aluminum slide) [4]: amorphous
- DVS (outcome) [5]: (deliquesced)
- DVS weight gain ([5]; at 80% RH): ~3.9% gain at 80%
- DVS weight gain ([5]; at 90% RH): ~25% gain at 90%

Compound: Cl.O=C(Nc1cnn2ccc(N3CCC[C@@H]3c3cc(F)ccc3F)nc12)N1CC[C@H](O)C1 [HCl, (S)—N-(5-((R)-2-(2,5-difluorophenyl)pyrrolidine-1-yl)pyrazolo[1,5-a]pyrimidin-3-yl)-3-hydroxypyrrolidine-1-carboxamide hydrochloride]
- Stability at 40° Celsius/75% RH (aluminum slide) [4]: form change
- DVS (outcome) [5]: form change
- DVS weight gain ([5]; at 50% RH): ~1% gain at 50%

Compound: O=C(Nc1cnn2ccc(N3CCC[C@@H]3c3cc(F)ccc3F)nc12)N1CC[C@H](O)C1 [L-ARR10-118]
- Angle of Repose Average (Angle of repose): 50.28 °
- Angle of Repose θ (Angle of repose): 50.28 °
- Angle of Repose φ (Angle of repose): 50.28 °
- Bulk Density [3]: 594.8 mg/mL
- Tapped Density [3]: 762.6 mg/mL

Compound: CS(=O)(=O)O.O=C(Nc1cnn2ccc(N3CCC[C@@H]3c3cc(F)ccc3F)nc12)N1CC[C@H](O)C1 [Mesylate, (S)—N-(5-((R)-2-(2,5-difluorophenyl)pyrrolidin-1-yl)pyrazolo[1,5-a]pyrimidin-3-yl)-3-hydroxypyrrolidine-1-carboxamide methanesulfonate]
- Stability at 40° Celsius/75% RH (aluminum slide) [4]: Deliquesced
- DVS (outcome) [5]: (crystalline)
- DVS weight gain ([5]; at 80% RH): ~9% gain at 80%
- DVS weight gain ([5]; at 90% RH): ~50% gain at 90%
